Experimental data: US20090311279A1, “Colorectal Cancer Antigen” (National Institutes of Health, priority 2004, published 2009)

Experiments:
Format in all cases: cell-based, human
[1] = system: CD4+ clone C111 T cells; 1847 CD40L B cells (HLA-DRβ1*1301); assay: Peptide-pulsed 1847 CD40L B cells, IFN-γ release from clone C111 by ELISA; conditions: 18 hrs
Protocol: (§1) Peptides of 20 or 21 amino acids in length that overlapped by 15 amino acids that were encoded by the long open reading frame of the original cDNA clone that was isolated were synthesised by solid-phase method using a peptide synthesiser (AMS 422; Gilson Co., Inc. Middleton, Wis.). The purity of the peptides was verified by mass spectrometry (Tuft's Core Facility, Boston, Mass.). […] After three hours, 1-5×10^4 T cells were added to the wells in 150 μl/well of medium and incubated for 18 hours at 37° C. and 5% CO2, followed by measurement of INF-γ release by ELISA.
(§2) Peptides that were 20 or 21 amino acids in length and that overlapped by either 14 or 16 amino acids, were than synthesised and tested for their ability to sensitise target cells for recognition by C111 T cells. Since autologous normal B cells could not be efficiently expanded, allogeneic normal B cells expressing either DRβ1*0402 or DRβ1*1301 were used to carry out these assays.
(§3) The 1681 and 1847 CD40L stimulated normal B cell lines shared expression of HLA-DRβ1*0402 and HLA-DRβ1*1301 molecules, respectively, with the autologous tumour cell line. These cells were incubated with the panel of peptides and then tested for their ability to stimulate cytokine release from C111 T cells.

[2] = system: CD4+ clone C111 T cells; 1681 CD40L B cells (HLA-DRβ1*0402); assay: Peptide-pulsed 1681 CD40L B cells, IFN-γ release from clone C111 by ELISA; conditions: 18 hrs
Protocol: as §1, §2, §3

C111 T cells = assay: Peptide pulsing of target cells expressing HLA-DRβ1*0402 or 1301, cytokine release from C111 T cells; conditions: 1681 and 1847 CD40L B cells pulsed with peptide
Protocol: Peptides of 20 or 21 amino acids in length that overlapped by 15 amino acids that were encoded by the long open reading frame of the original cDNA clone that was isolated were synthesised by solid-phase method using a peptide synthesiser (AMS 422; Gilson Co., Inc. Middleton, Wis.). The purity of the peptides was verified by mass spectrometry (Tuft's Core Facility, Boston, Mass.). Allogeneic B cells (1×10^5 cells/well) that expressed either the DRβ1*0402 or the DRβ1*1301 molecules were incubated with 50 μg/ml in 100 μl/well of ISCOVE'S medium plus 10% HS in flat bottom-96-well plates. After three hours, 1-5×10^4 T cells were added to the wells in 150 μl/well of medium and incubated for 18 hours at 37° C. and 5% CO2, followed by measurement of INF-γ release by ELISA.
as §2
The 1681 and 1847 CD40L stimulated normal B cell lines shared expression of HLA-DRβ1*0402 and HLA-DRβ1*1301 molecules, respectively, with the autologous tumour cell line. […]

[3] = 1847 CD40LB pulsed with peptide 12.5 μg/ml
[4] = 1847 CD40LB pulsed with peptide 25 μg/ml
[5] = 1847 CD40LB pulsed with peptide 26.25 μg/ml
[6] = 1847 CD40LB pulsed with peptide 50 μg/ml
[7] = 1847 CD40LB pulsed with peptide 100 μg/ml
[8] = 1681 CD40LB pulsed with peptide 12.5 μg/ml
[9] = 1681 CD40LB pulsed with peptide 25 μg/ml
[10] = 1681 CD40LB pulsed with peptide 26.25 μg/ml
[11] = 1681 CD40LB pulsed with peptide 50 μg/ml
[12] = 1681 CD40LB pulsed with peptide 100 μg/ml

Row | Sequence | IFN-γ release from clone C111 [1, 3] | IFN-γ release from clone C111 [1, 4] | IFN-γ release from clone C111 [1, 5] | IFN-γ release from clone C111 [1, 6] | IFN-γ release from clone C111 [1, 7] | IFN-γ release from clone C111 [2, 8] | IFN-γ release from clone C111 [2, 9] | IFN-γ release from clone C111 [2, 10] | IFN-γ release from clone C111 [2, 11] | IFN-γ release from clone C111 [2, 12] | cytokine release from C111 T cells (C111 T cells)
1 | ASAFEIFSTFPPTLYQDDTL [COA-1-derived overlapping peptide] | < 7.8 pg/mL | < 7.8 pg/mL | < 7.8 pg/mL | < 7.8 pg/mL | < 7.8 pg/mL | – | – | – | – | – | –
2 | DDTLTLQAAGLVPKAALLLRA [COA-1-derived overlapping peptide] | < 7.8 pg/mL | < 7.8 pg/mL | < 7.8 pg/mL | 33 pg/mL | 22 pg/mL | < 7.8 pg/mL | < 7.8 pg/mL | < 7.8 pg/mL | 16 pg/mL | 11 pg/mL | –
3 | FSTFPPTLYQDDTLTLQAAG (listed as Homo sapiens) [COA-1-derived overlapping peptide] | 79 pg/mL | 296 pg/mL | < 7.8 pg/mL | 397 pg/mL | 226 pg/mL | < 7.8 pg/mL | 69 pg/mL | < 7.8 pg/mL | 236 pg/mL | 105 pg/mL | stimulated significant cytokine release
4 | LQAAGLVPKAALLLRARRAP [COA-1-derived overlapping peptide] | < 7.8 pg/mL | < 7.8 pg/mL | < 7.8 pg/mL | 32 pg/mL | 52 pg/mL | < 7.8 pg/mL | < 7.8 pg/mL | < 7.8 pg/mL | 12 pg/mL | 21 pg/mL | –
5 | TLYQDDTLTLQAAGLVPKAA (listed as Homo sapiens) [COA-1-derived overlapping peptide] | < 7.8 pg/mL | < 7.8 pg/mL | < 7.8 pg/mL | 326 pg/mL | 79 pg/mL | < 7.8 pg/mL | < 7.8 pg/mL | < 7.8 pg/mL | 159 pg/mL | 51 pg/mL | stimulated significant cytokine release
